Test results taken from US9351983B2, “Use of glycerophosphoinositols for the treatment of septic shock” (CONSIGLIO NAZIONALE DELLE RICERCHE, priority 2012, dated 2016).

Tests used:
[1] = test system: cyclooxygenase 2 (COX-2) gene expression; assay: In vitro model of human inflammation: real-time PCR of COX-2; assay type: cell-based; details: 300 μM; 4 h, 14 h, 24 h, 48 h; effect mainly at 4 h and 14 h; one donor, preliminary
Experimental: (§1) FIG. 15—Glycerophosphoinositol modulates the kinetic transcriptional profile of genes involved in the regulation of inflammatory response. Human monocytes were purified from one donor and treated according to the in vitro model of human inflammation, previously described, in absence (blue line) or in presence (red line) of 300 μM glycerophosphoinositol. In detail glycerophosphoinositol was added to cells in culture 20 minutes before LPS, IL-10 and TGF-β, that is, again after each wash. Samples were collected at time 4 h, 14 h, 24 h, 48 h; freshly isolated monocytes have been considered as control at time 0 h. Total RNA was extracted from cells by RNeasy kit (Qiagen) and reverse-transcribed to cDNA (QuantiTect Reverse Transcription kit, Qiagen). […] Each sample was measured in triplicate and data were analyzed with Pfaffl methods for comparing relative expression data. The measurement of mRNA expression was expressed as fold-increase over control (time 0 h). […]
(§2) Total RNA was extracted with RNeasy kit (Qiagen) according to the manufacturer's instructions. Both integrity and quality of total RNA were checked by agarose gel electrophoresis and the concentration of each RNA sample was assessed spectrophotometrically. Total RNAs were reverse-transcribed to cDNA (QuantiTect Reverse Transcription kit, Qiagen) with oligo-dT and random primers, according to manufacturer's protocol. […]

Interleukin 1β (IL-1β) = assay: In vitro model of human inflammation: ELISA of IL-1β in supernatants; assay type: cell-based; details: 300 μM; full inflammation (4 h and 14 h); one donor
Experimental: (§3) FIG. 16—Glycerophosphoinositol inhibits the release of cytokines. Human monocytes were purified from one donor and treated according to the in vitro model of human inflammation, previously described, in absence (blue line) or in presence (red line) of 300 μM glycerophosphoinositol. In detail, glycerophosphoinositol was added to cultured cells 20 minutes before LPS, IL-10 and TGF-β, that is, again after each wash. The growth medium was collected at time 4 h, 14 h, 24 h, 48 h; growth medium from freshly isolated monocytes was considered as control at time 0 h. The levels of cytokines Interleukin 1β (IL-1β), Tumor necrosis factor α (TNFα) and Interleukin-6 (IL-6) in the supernatants were measured by enzyme-linked immunosorbent assay (ELISA kit, R&D System) according to manufacturer's protocol. An increased release of these cytokines was observed during the full inflammation (time 4 h and 14 h) as expected. […]
(§4) Extracellular levels of IL-1β, TNFα and IL-6 were measured by enzyme-linked immunosorbent assay (ELISA) from R&D System. […] Then the recovered supernatants were loaded onto plates according to manufacturer's protocol and the concentration of the protein was assessed spectrophotometrically.

[2] = test system: interleukin 1β (IL-1β) gene expression; assay: In vitro model of human inflammation: real-time PCR of IL-1β; assay type: cell-based; details: 300 μM; 4 h, 14 h, 24 h, 48 h; effect mainly at 4 h and 14 h; one donor, preliminary
Experimental: as §1, §2

[3] = test system: phospholipase A2IVα (PLA2IVα) gene expression; assay: In vitro model of human inflammation: real-time PCR of PLA2IVα; assay type: cell-based; details: 300 μM; 4 h, 14 h, 24 h, 48 h; effect mainly at 4 h and 14 h; one donor, preliminary
Experimental: as §1, §2

IL-1β = assay: ELISA of IL-1β in medium of LPS-stimulated monocytes; assay type: cell-based, human; details: 300 μM
Experimental: (§5) FIG. 5—The inhibitory effects of GroPIns are also evident at the protein expression level. Purified monocytes (4×10^3 cells/sample) were pre-incubated for 20 min at 37° C. in the absence and presence of 300 μM GroPIns, and then for a further 5 h and 24 h without or with 0.1 μg/ml LPS from E. coli. At the end of this incubation, the levels of TNFα, IL-1β and TxB-2 in the medium were assessed by ELISA. In monocytes alone, the protein concentrations were under the assay detection limits at both the times. The data are representative of three independent experiments performed with cells from different donors. Exposure of monocytes to LPS induced a time-dependent increase in the […] levels of all of the cytokines analysed.
(§6) Cellular levels of TNFα, IL-1β and TxB-2 were quantified by enzyme-linked immunosorbent assay (ELISA). Conditioned medium from monocytes was sedimented by centrifugation at 300×g at room temperature for 10 min to eliminate cellular debris. Then, the supernatant was recovered and the concentrations of TNFα, IL-1β and TxB-2 were assessed by ELISA, as specified by the manufacturers (Amersham Pharmacia Biotech (NJ, USA).

Interleukin-6 (IL-6) = assay: In vitro model of human inflammation: ELISA of IL-6 in supernatants; assay type: cell-based; details: 300 μM; full inflammation (4 h and 14 h); one donor
Experimental: as §3, §4

TxB-2 = assay: ELISA of TxB-2 in medium of LPS-stimulated monocytes; assay type: cell-based, human; details: 300 μM
Experimental: as §5, §6

O=P(O)(OCC(O)CO)OC1C(O)C(O)C(O)C(O)C1O (stereo not drawn) [GroPIns, glycerophosphoinositol]
COX-2 mRNA expression [1]: hampered the expression | amount of IL-1β in the supernatants (Interleukin 1β (IL-1β)): significantly reduced the amount of these cytokines in the supernatants | IL-1β mRNA expression [2]: hampered the expression | PLA2IVα mRNA expression [3]: hampered the expression | level of IL-1β in the medium (IL-1β; 0.1 μg/ml LPS for 5 h): very small effects | level of IL-1β in the medium (IL-1β; 0.1 μg/ml LPS for 24 h): significantly reduced | amount of IL-6 in the supernatants (Interleukin-6 (IL-6)): significantly reduced the amount of these cytokines in the supernatants | level of TxB-2 in the medium (TxB-2; 0.1 μg/ml LPS for 5 h): very small effects | level of TxB-2 in the medium (TxB-2; 0.1 μg/ml LPS for 24 h): significantly reduced
